# Source: patent US12364709B2, “Bioavailable poly amines” (AMINEX THERAPEUTICS, INC., priority 2016, dated 2025)
# Test: 28-day repeat-dose toxicity study, toxicokinetics of AMXT 1501 dicaprate
# Type: in vivo, beagle dogs
# Procedure: AMXT 1501 PK parameters were calculated for all AMXT 1501 dicaprate-dosed animals for the first dose (Day 1) and last dose (Day 28).
# [1] = 8 mg/kg/day PO, DFMO 0, Day 1, M+F combined
# [2] = 8 mg/kg/day PO, DFMO 0, Day 28, M+F combined
# [3] = 8 mg/kg/day PO, DFMO 50 mg/kg/day, Day 28, M+F combined
# [4] = 8 mg/kg/day PO, DFMO 200 mg/kg/day, Day 1, M+F combined
# [5] = 16 mg/kg/day PO, DFMO 0, Day 1, M+F combined
# [6] = 16 mg/kg/day PO, DFMO 0, Day 28, M+F combined
# [7] = 16 mg/kg/day PO, DFMO 50 mg/kg/day, Day 28, M+F combined
# [8] = 16 mg/kg/day PO, DFMO 200 mg/kg/day, Day 1, M+F combined
# [9] = 32 mg/kg/day PO, DFMO 0, Day 1, M+F combined
# [10] = 32 mg/kg/day PO, DFMO 0, Day 28, M+F combined
compound,measurement,setting,value
CCCCCCCCCCCCCCCC(=O)NCCCC[C@@H](N)C(=O)NCCCNCCCCNCCCN [AMXT 1501 dicaprate],AUC0-24 hr Max.,[1],2810 ng·h/mL
same,AUC0-24 hr Min.,[1],374 ng·h/mL
same,Cmax Max.,[1],158 ng/mL
same,Cmax Min.,[1],30.8 ng/mL
same,Tmax Max.,[1],12.0 h
same,Tmax Min.,[1],2.00 h
same,AUC0-24 hr Max.,[2],5230 ng·h/mL
same,AUC0-24 hr Min.,[2],249 ng·h/mL
same,AUC0-t Max.,[2],9470 ng·h/mL
same,AUC0-t Min.,[2],308 ng·h/mL
same,AUC0-∞ Min.,[2],328 ng·h/mL
same,Cmax Max.,[2],360 ng/mL
same,Cmax Min.,[2],17.7 ng/mL
same,Tmax Min.,[2],0.00 h
same,t1/2 Max.,[2],28.8 h
same,t1/2 Min.,[2],12.6 h
same,AUC0-24 hr Max.,[3],4230 ng·h/mL
same,AUC0-24 hr Min.,[3],366 ng·h/mL
same,AUC0-t Max.,[3],5010 ng·h/mL
same,AUC0-t Min.,[3],1040 ng·h/mL
same,AUC0-∞ Max.,[3],5120 ng·h/mL
same,AUC0-∞ Min.,[3],1060 ng·h/mL
same,Cmax Max.,[3],275 ng/mL
same,Cmax Min.,[3],48.0 ng/mL
same,Tmax Max.,[3],12.0 h
same,Tmax Min.,[3],0.00 h
same,t1/2 Max.,[3],24.9 h
same,t1/2 Min.,[3],8.85 h
same,AUC0-24 hr Max.,[4],2670 ng·h/mL
same,AUC0-24 hr Min.,[4],323 ng·h/mL
same,Cmax Max.,[4],182 ng/mL
same,Cmax Min.,[4],35.2 ng/mL
same,Tmax Max.,[4],12.0 h
same,AUC0-24 hr Max.,[5],6350 ng·h/mL
same,AUC0-24 hr Min.,[5],104 ng·h/mL
same,Cmax Max.,[5],408 ng/mL
same,Cmax Min.,[5],10.4 ng/mL
same,Tmax Max.,[5],12.0 h
same,Tmax Min.,[5],2.00 h
same,AUC0-24 hr Max.,[6],7800 ng·h/mL
same,AUC0-24 hr Min.,[6],1320 ng·h/mL
same,AUC0-t Max.,[6],10800 ng·h/mL
same,AUC0-t Min.,[6],4870 ng·h/mL
same,AUC0-∞ Max.,[6],10800 ng·h/mL
same,AUC0-∞ Min.,[6],4910 ng·h/mL
same,Cmax Max.,[6],408 ng/mL
same,Cmax Min.,[6],109 ng/mL
same,Tmax Max.,[6],12.0 h
same,Tmax Min.,[6],0.00 h
same,t1/2 Max.,[6],35.8 h
same,t1/2 Min.,[6],10.1 h
same,AUC0-24 hr Max.,[7],10800 ng·h/mL
same,AUC0-24 hr Min.,[7],1480 ng·h/mL
same,AUC0-t Max.,[7],22300 ng·h/mL
same,AUC0-t Min.,[7],3410 ng·h/mL
same,AUC0-∞ Max.,[7],22600 ng·h/mL
same,AUC0-∞ Min.,[7],3610 ng·h/mL
same,Cmax Max.,[7],578 ng/mL
same,Cmax Min.,[7],98.4 ng/mL
same,Tmax Max.,[7],12.0 h
same,Tmax Min.,[7],0.00 h
same,t1/2 Max.,[7],69.4 h
same,t1/2 Min.,[7],26.4 h
same,AUC0-24 hr Max.,[8],4280 ng·h/mL
same,AUC0-24 hr Min.,[8],94.4 ng·h/mL
same,Cmax Max.,[8],263 ng/mL
same,Cmax Min.,[8],7.27 ng/mL
same,Tmax Max.,[8],12.0 h
same,AUC0-24 hr Max.,[9],6590 ng·h/mL
same,AUC0-24 hr Min.,[9],999 ng·h/mL
same,Cmax Max.,[9],353 ng/mL
same,Cmax Min.,[9],58.2 ng/mL
same,Tmax Max.,[9],12.0 h
same,Tmax Min.,[9],2.00 h
same,AUC0-24 hr Max.,[10],16600 ng·h/mL
same,AUC0-24 hr Min.,[10],2830 ng·h/mL
same,AUC0-t Max.,[10],41500 ng·h/mL
same,AUC0-t Min.,[10],8730 ng·h/mL
same,AUC0-∞ Max.,[10],41700 ng·h/mL
same,AUC0-∞ Min.,[10],8810 ng·h/mL
same,Cmax Max.,[10],1110 ng/mL
same,Cmax Min.,[10],190 ng/mL
same,Tmax Max.,[10],12.0 h
same,Tmax Min.,[10],0.00 h
same,t1/2 Max.,[10],61.1 h
same,t1/2 Min.,[10],27.3 h
same,dose-proportionality of plasma levels of AMXT 1501,"8, 16 and 32 mg/kg/day, Day 1 and Day 28, enterically-coated tablets",approximately dose-proportional increases
same,half-life at 28 days,"beagle, dog, plasma, oral, Day 28, all dose groups, read-out: Day 28 individual animal AMXT 1501 t1/2 values",531 to 4160 min
same,AUC(0-t),"both sexes, beagle, dog, plasma, po, 8 mg/kg/day, 8 mg/kg/day PO, DFMO 0, Day 1, M+F combined, read-out: AUC0-24 hr Mean",1330 ng·h/mL
